pIC50: −log10 of the molar value. Like-named read-outs stand apart in the source and are kept apart here.
Tests used:
neonatal C57BL/6 mice = test: Mouse neonatal ultrasonic vocalization test; type: in vivo; details: s.c., postnatal day 3, 30 min after injection
Source text: (§1) Antidepressant- and anxiolytic like properties of the compounds were examined in mouse tail suspension test (TS), mouse forced swim test (FS) and mouse neonatal ultrasonic vocalization test (USV).
Anxiolytic compounds typically decrease the vocalizations in rat pups separated from their mother (Olivier et al., Eur. J. Pharmacol. 1998, 358, 117) More recently, this test has also been established in mice (Dirks et al., Pharmacol. Biochem. Behav. 2002, 72, 993).
Seventeen days pregnant C57BL/6 mice were obtained from Charles River (Sulzfeld, Germany). They were housed and maintained at a constant temperature of 22° C., under a 12:12 h reversed light/dark cycle (lights off at 6:00 h), with food and water ad libitum. Two times per day, cages were checked for newborn litters. Litter size was 5-8 pups/litter.
Ultrasonic vocalizatiors (USVs) were recorded in a sound attenuating, ventilated chamber at room temperature, detected at 60 kHz (range 50-70 kHz) by a bat recorder in combination with the UltraVox system (Noldus, The Netherlands). No filter was used in order to be able to record pup clicks.
Distress calls of neonatal mice were measured in neonatal C57BL/6 mice at postnatal day 3 during the early dark phase (between 8:00 and 12:00). Pups were weighed (body weight 2-3 g), followed by subcutaneous injection (10 ml/kg), and placed back into the nest. After 30 min, they were separated from the mother and placed into a beaker underneath the bat detector. The number of calls and the duration of calls were recorded over a period of 5 min.
(§2) Data were analyzed using the non-parametric, unadjusted Wilcoxon-Mann-Whitney rank sum test. Each dose was compared with vehicle.

C57BL/6 mice = test: Mouse forced swim test; type: in vivo; details: s.c., immobility, treatment 30 min prior to test
Procedure: as §1
This test has been validated as test for antidepressant-like activity (Borsini and Meli, Psychopharmacology 1988, 94, 147).
Adult male C57BL/6 mice (body weight 22-24 g Charles River, Sulzfeld, Germany) were housed individually in IVC racks and maintained under a 12:12 h light/dark cycle (lights on at 6:00 b), with food and water ad libitum.
A clear glass beaker (10 cm in diameter, 25 cm high) was filled to a depth of 10 cm with water (25° C.). Mice were placed into the water for 6 min. Immobility during the first and the last 3 min were scored automatically using the Videotrack video tracking system (Viewpoint, France), which allows detection of individual pixel movements. Four animals were tested in parallel. Treatment was given 30 min prior to test (s.c., 10 ml/kg). The water was replaced after each animal.
as §2

NMRI mice = test: Mouse tail suspension test; type: in vivo; details: s.c., immobility, 30 min after administration
[1] = target: T1, cloned human δ opioid receptor (Homo sapiens, UniProt P41143); test: Radioligand binding, competitive inhibition of [3H]DPDPE
T1 construct: expressed in transfected cells; host or cells: C6 glioma cells (permanently transfected)
T1 sequence (P41143 whole entry): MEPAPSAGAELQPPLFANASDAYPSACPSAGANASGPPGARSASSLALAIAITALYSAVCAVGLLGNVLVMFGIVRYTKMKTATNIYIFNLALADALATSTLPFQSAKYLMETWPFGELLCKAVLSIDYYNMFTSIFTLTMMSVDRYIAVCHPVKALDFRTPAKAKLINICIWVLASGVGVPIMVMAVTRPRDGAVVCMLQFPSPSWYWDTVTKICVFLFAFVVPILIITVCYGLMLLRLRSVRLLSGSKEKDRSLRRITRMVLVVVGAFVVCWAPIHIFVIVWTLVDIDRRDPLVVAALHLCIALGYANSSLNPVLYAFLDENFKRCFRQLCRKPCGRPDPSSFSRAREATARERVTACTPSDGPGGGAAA

δ opioid receptor [2] = target: T2, δ opioid receptor (Homo sapiens, UniProt P41143); test: Signal transport binding, delta antagonism; type: biochemical
T2 construct: expressed in transfected cells; host or cells: C6 glioma cells (permanently transfected)
T2 sequence (P41143 whole entry): as above

[3] = target: cloned human μ opioid receptor (Homo sapiens, UniProt P35372); test: Radioligand binding, competition with [3H]DAMGO; details: Table 8, CHO membranes, read-out: Agonist receptor binding (pIC50) mu (converted)
Sequence of cloned human μ opioid receptor (P35372 whole entry): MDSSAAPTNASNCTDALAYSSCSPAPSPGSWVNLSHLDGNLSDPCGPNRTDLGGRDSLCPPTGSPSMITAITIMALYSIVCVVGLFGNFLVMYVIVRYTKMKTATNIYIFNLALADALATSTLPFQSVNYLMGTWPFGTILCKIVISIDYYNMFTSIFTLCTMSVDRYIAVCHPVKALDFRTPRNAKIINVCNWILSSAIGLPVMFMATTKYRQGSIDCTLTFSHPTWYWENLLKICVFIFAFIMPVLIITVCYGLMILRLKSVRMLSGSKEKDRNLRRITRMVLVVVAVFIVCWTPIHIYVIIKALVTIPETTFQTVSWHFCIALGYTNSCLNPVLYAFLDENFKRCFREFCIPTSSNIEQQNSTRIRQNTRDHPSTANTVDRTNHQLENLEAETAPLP

δ opioid receptor [4] = target: T2, δ opioid receptor; test: [35S]GTPγS binding, delta agonism; type: biochemical
Procedure: Second messenger signaling was measured on membrane preparations via stimulation of [^35S]GTPγS binding In this functional assay, agonistic and antagonistic properties of the compounds were investigated.
The assay mixtures contained 10 μg of membrane protein. An additional 10 μg/ml saponire was added to the diluted membranes as a detergent to maximize the [^35S]GTPγS penetration through the membranes.
For testing agonistic activity, 175 μl of diluted membranes was pre-incubated in the buffer described above together with 25 μl of buffer and 25 μl of varying concentrations of the compound in a total volume of 225 μl. For antagonistic activities, the 25 μl of the buffer addition was replaced with the reference agonist for stimulating the basal levels. […]
The amount of bound radioactivity on the filter unit was determined after filter drying and scintillant addition (Nicroscint-O; Packard) by liquid scintillation counting.
Basal [^35S]GTPγS binding was measured in absence of compounds. Stimulation by agonist was calculated as the percentage increase above basal levels. The sigmoid agonist concentration response curves for increases in [^35S]GTPγS binding and antagonist inhibition curves for inhibition of the reference agonist-stimulated [^35S]GTPγS binding were analyzed by non-linear regression using the GraphPad Prism program. […]

[5] = Table 7, delta opioid receptor, read-out: pIC50 values for the delta opioid receptor agonist test (converted)

SMILES: CCOC(=O)N1CCC(c2ccccc2)(c2nccn2Cc2ccccc2)CC1 [Compound 1, ethyl 4-phenyl-4-[1-(phenylmethyl)-1H-imidazol-2-yl]-1-piperidinecarboxylate]
- Ultrasonic vocalization (LAD) (Lowest Active Dose tested) (neonatal C57BL/6 mice): 10 mg/kg s.c.
- Forced swim (LAD) (Lowest Active Dose tested) (C57BL/6 mice): 30 mg/kg s.c.
- Tail suspension LAD (Lowest Active Dose tested) (NMRI mice): 30 mg/kg s.c.

SMILES: O=C(c1ccccc1)N1CCC(c2ccccc2)(c2nccn2Cc2ccccc2)CC1 [Compound 2]
- Ultrasonic vocalization (LAD) (Lowest Active Dose tested) (neonatal C57BL/6 mice): 1 mg/kg s.c.
- Tail suspension LAD (Lowest Active Dose tested) (NMRI mice): 10 mg/kg s.c.

SMILES: CCOC(=O)N1CCC(c2ccccc2)(c2nccn2Cc2ccc(C(=O)OC)cc2)CC1 [Compound 3]
- melting point: 149.1 °C

SMILES: CCN/C(=N/C#N)N1CCC(c2ccccc2)(c2nccn2Cc2ccccc2)CC1 [Compound 4]
- pIC50 [1]: 7.30
- melting point: 84.2 °C

SMILES: COC(=O)c1ccccc1NC(=O)N1CCC(c2ccccc2)(c2nccn2Cc2ccccc2)CC1 [Compound 7]
- pIC50 [1]: 7.70

SMILES: CCOC(=O)N1CCC(c2ccccc2)(c2nccn2Cc2ccc(C(=O)O)cc2)CC1 [Compound 8]
- melting point: 251.6 °C

SMILES: O=C(Nc1ccccc1CO)N1CCC(c2ccccc2)(c2nccn2Cc2ccccc2)CC1 [Compound 10]
- IC50 [1, 5]: 0.0631 µM

SMILES: O=C(O)c1ccccc1NC(=O)N1CCC(c2ccccc2)(c2nccn2Cc2ccccc2)CC1 [Compound 11]
- IC50 [1, 5]: 0.0158 µM

SMILES: CCOC(=O)c1ccc(C(C)n2ccnc2C2(c3ccccc3)CCN(C(=O)OCC)CC2)cc1 (centres unmarked) [Compound 19]
- IC50 (δ opioid receptor [2]; Table 8, against reference agonist DPDPE, read-out: Signal transport binding (pIC50) delta antag. (converted)): > 10 µM
- pIC50 ([1]; Agonist receptor binding (pIC50) delta, Table 8, [3H]DPDPE 2 nM, C6 glioma cell membranes): 8.20
- IC50 ([3]; [3H]DAMGO 1 nM): > 1 µM
- IC50 (δ opioid receptor [4]; Table 8, [35S]GTPγS binding, membranes, read-out: Signal transport binding (pIC50) delta agonism GTPγS (converted)): 0.316 µM

SMILES: CCOC(=O)N1CCC(c2ccccc2)(c2nccn2C(C)c2ccccc2)CC1 (centres unmarked) [Compound 20]
- Ultrasonic vocalization (LAD) (Lowest Active Dose tested) (neonatal C57BL/6 mice): 30 mg/kg s.c.
- Tail suspension LAD (Lowest Active Dose tested) (NMRI mice): 30 mg/kg s.c.

SMILES: CCOC(=O)N1CCC(c2ccccc2)(c2nccn2Cc2ccc3ccccc3c2)CC1 [Compound 22]
- IC50 [1, 5]: 0.0501 µM

SMILES: O=C(OC1CCCCC1)N1CCC(c2ccccc2)(c2nccn2Cc2ccccc2)CC1 [Compound 28]
- pIC50 [1]: 7.80

SMILES: O=C(C1CC1)N1CCC(c2ccccc2)(c2nccn2Cc2ccccc2)CC1 [Compound 36]
- pIC50 [1]: 7.30

SMILES: O=C(c1cc(C(F)(F)F)cc(C(F)(F)F)c1)N1CCC(c2ccccc2)(c2nccn2Cc2ccccc2)CC1 [Compound 42]
- IC50 [1, 5]: 0.0631 µM

SMILES: CCOC(=O)CNC(=O)N1CCC(c2ccccc2)(c2nccn2Cc2ccccc2)CC1 [Compound 48]
- pIC50 [1]: 7.10

SMILES: CCCCNC(=O)N1CCC(c2ccccc2)(c2nccn2Cc2ccccc2)CC1 [Compound 50]
- pIC50 [1]: 7.60

SMILES: O=C(NC1CCCCC1)N1CCC(c2ccccc2)(c2nccn2Cc2ccccc2)CC1 [Compound 51]
- pIC50 [1]: 7.30

SMILES: COC(=O)c1ccc(Cn2ccnc2C2(c3ccccc3)CCN(C(=O)Nc3ccccc3)CC2)cc1 [Compound 52]
- IC50 [1, 5]: 0.02 µM

SMILES: O=C(Nc1ccccc1Cl)N1CCC(c2ccccc2)(c2nccn2Cc2ccccc2)CC1 [Compound 65]
- IC50 [1, 5]: 0.0316 µM

SMILES: O=C(Nc1ccccc1Br)N1CCC(c2ccccc2)(c2nccn2Cc2ccccc2)CC1 [Compound 66]
- pIC50 [1]: 7.50

SMILES: CCOc1ccccc1NC(=O)N1CCC(c2ccccc2)(c2nccn2Cc2ccccc2)CC1 [Compound 70]
- pIC50 [1]: 7.40

SMILES: O=C(Nc1ccc([N+](=O)[O-])cc1)N1CCC(c2ccccc2)(c2nccn2Cc2ccccc2)CC1 [Compound 71]
- pIC50 [1]: 7.30

SMILES: O=C(Nc1ccccc1Oc1ccccc1)N1CCC(c2ccccc2)(c2nccn2Cc2ccccc2)CC1 [Compound 75]
- pIC50 [1]: 7.40

SMILES: CSc1ccccc1NC(=O)N1CCC(c2ccccc2)(c2nccn2Cc2ccccc2)CC1 [Compound 76]
- pIC50 [1]: 7.40

SMILES: COc1ccc(Cl)cc1NC(=O)N1CCC(c2ccccc2)(c2nccn2Cc2ccccc2)CC1 [Compound 78]
- IC50 [1, 5]: 0.0126 µM

SMILES: O=C(NCc1ccccc1)N1CCC(c2ccccc2)(c2nccn2Cc2ccccc2)CC1 [Compound 80]
- pIC50 [1]: 7.10

SMILES: O=C(Nc1ccc2ccccc2c1)N1CCC(c2ccccc2)(c2nccn2Cc2ccccc2)CC1 [Compound 81]
- pIC50 [1]: 7.20

SMILES: O=C(c1csc(-c2cccnc2)n1)N1CCC(c2ccccc2)(c2nccn2Cc2ccccc2)CC1 [Compound 84]
- IC50 [1, 5]: 0.0316 µM

SMILES: O=C(Nc1ccccn1)N1CCC(c2ccccc2)(c2nccn2Cc2ccccc2)CC1 [Compound 87]
- pIC50 [1]: 7.30

SMILES: O=S(=O)(Nc1ccccc1)N1CCC(c2ccccc2)(c2nccn2Cc2ccccc2)CC1 [Compound 98]
- pIC50 (δ opioid receptor [2]): < 5.00
- pIC50 [1]: 8.20
- IC50 ([3]; [[…] 1 nM): 2.51 µM
- pIC50 (δ opioid receptor [4]): 6.10

SMILES: CCN(CC)C(=O)c1ccc(Cn2ccnc2C2(c3ccccc3)CCN(c3nc4ccccc4o3)CC2)cc1 [Compound 99]
- pIC50 [1]: 7.30

SMILES: CC(c1ccccc1)n1ccnc1C1(c2ccccc2)CCN(c2nc3ccccc3o2)CC1 (centres unmarked) [Compound 101]
- pIC50 [1]: 7.80

SMILES: COC(=O)c1ccc(Cn2ccnc2C2(c3ccccc3)CCN(c3nc4ccccc4s3)CC2)cc1 [Compound 102]
- IC50 ([1]; Table 8, [3H]DPDPE 2 nM, C6 glioma cell membranes, read-out: Agonist receptor binding (pIC50) delta (converted)): 0.00316 µM
- IC50 ([3]; [3H]DAMGO 1 nM): > 1 µM

SMILES: c1ccc(Cn2ccnc2C2(c3ccccc3)CCN(c3ncccn3)CC2)cc1 [Compound 103]
- pIC50 [1]: 7.70

SMILES: c1ccc(Cn2ccnc2C2(c3ccccc3)CCN(c3nccs3)CC2)cc1 [Compound 105]
- pIC50 [1]: 7.90

— US20060287345A1, “Substituted 4-phenyl-4-[1h-imidazol-2-yl]-piperidine derivatives as selective non-peptide delta opiod agonists with antidepressant and anxiolytic activity” (priority 2003, published 2006)
